The EC50 is the midpoint of the concentration-response curve.

The test has as its target T1, Human AHR (Homo sapiens, UniProt P35869).
T1 construct: expressed in transfected cells
T1 sequence (P35869 11-848): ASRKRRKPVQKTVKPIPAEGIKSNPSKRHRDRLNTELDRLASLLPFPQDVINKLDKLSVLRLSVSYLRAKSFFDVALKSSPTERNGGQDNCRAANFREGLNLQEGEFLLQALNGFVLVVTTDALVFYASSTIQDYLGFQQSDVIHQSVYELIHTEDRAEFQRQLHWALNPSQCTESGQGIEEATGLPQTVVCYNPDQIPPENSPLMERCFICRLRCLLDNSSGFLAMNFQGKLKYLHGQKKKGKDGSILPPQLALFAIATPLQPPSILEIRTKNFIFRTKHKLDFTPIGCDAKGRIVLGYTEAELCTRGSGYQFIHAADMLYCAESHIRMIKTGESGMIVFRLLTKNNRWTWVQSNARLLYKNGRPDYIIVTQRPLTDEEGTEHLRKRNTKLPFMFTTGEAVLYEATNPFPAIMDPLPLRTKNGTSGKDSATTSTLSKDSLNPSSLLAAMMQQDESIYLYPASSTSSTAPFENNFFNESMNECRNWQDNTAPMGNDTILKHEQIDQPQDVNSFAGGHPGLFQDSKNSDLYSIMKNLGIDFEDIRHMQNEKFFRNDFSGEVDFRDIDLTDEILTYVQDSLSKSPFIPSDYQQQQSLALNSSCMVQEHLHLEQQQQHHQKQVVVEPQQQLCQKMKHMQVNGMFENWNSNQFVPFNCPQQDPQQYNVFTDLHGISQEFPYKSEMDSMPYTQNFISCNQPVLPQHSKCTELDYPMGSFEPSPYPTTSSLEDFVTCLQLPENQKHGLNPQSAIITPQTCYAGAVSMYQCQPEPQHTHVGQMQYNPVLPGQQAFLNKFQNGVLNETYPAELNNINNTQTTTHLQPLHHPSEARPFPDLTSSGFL
As to the kind of experiment: hAHR Nuclear Translocation Assay. The class given is cell-based. Particulars: Jump-In T-REx HEK293 cells expressing AhR-EGFP chimera; 45 minutes incubation; ratio of EGFP fluorescent intensity in nuclear over cytosol; 20-point curve. The protocol:
Stable cell lines were established using Jump-In™ T-REx™ HEK293 Retargeting Kit (Life Technologies). Human AHR cDNA was cloned into the pJTI R4 CMV-TO EGFP vector. The EGFP was cloned to the C-terminal of AHR to form AhR-EGFP chimera. The pJTI R4 CMV-TO AhR-EGFP vector was transfected using FuGENE® HD into Jump-In™ T-REx™ HEK293 cells. Transfected cells were selected using 2.5 mg/ml G418 for 10 to 14 days, then expanded, harvested, and suspended in freeze media (FBS with 8% DMSO) at 2×10^7 cells/ml, and aliquots were stored in liquid nitrogen. […] On the assay date, compound was serially diluted (1:2) into 384-well nunc plates with DMSO using acoustic dispensing (ECHO). The dose response was a 20-point curve. Compound was resuspended in 40 μl of DMEM plus 0.1% BSA. The culture media was damped and 25 μl of DMEM plus 0.1% BSA was added, then 25 μl of compound in DMEM plus 0.1% BSA was added into cell plates. Cells were incubated with compounds at 37° C. and 5% CO2 for 45 minutes. The final DMSO concentration was 0.2%. The media was damped after 45 minutes of incubation. The cells were fixed with 40 μl of cold methanol (−20° C.) for 20 minutes. The methanol was damped and 50 μl of DPBS containing 1 μg/ml Hochst was added into the cell plates. The intensity of EGFP was quantitated by using OPERA PHENIX® or Operetta™ high content image system (Perkin Elmer) with 20× Water Objective and five field per well. The ratio of EGFP fluorescent intensity in nuclear over cytosol was analyzed using a 4-parameter nonlinear logistic equation to determine the potency of AHR agonists.
For `Cn1c(=O)c(C(=O)Nc2ncc(F)cn2)cc2c(NCCO)cccc21` [Example 68, N-(5-Fluoropyrimidin-2-yl)-5-(2-hydroxyethylamino)-1-methyl-2-oxo-quinoline-3-carboxamide], the EC50 amounted to 81.2 nM.
As for `Cn1c(=O)c(C(=O)Nc2ncc(C(F)(F)F)cn2)cc2c(NCCO)cccc21` [Example 69, 5-(2-Hydroxyethylamino)-1-methyl-2-oxo-N-[5-(trifluoromethyl)pyrimidin-2-yl]quinoline-3-carboxamide], the figure is 6.66 nM; as for `Cn1c(=O)c(C(=O)Nc2ccccc2)cc2ccc(NCCO)cc21` [Example 70, 7-(2-Hydroxyethylamino)-1-methyl-2-oxo-N-phenyl-quinoline-3-carboxamide], 15.1 nM.

The values above are taken from US12479822B2, “AHR agonists” (Eli Lilly and Company, priority 2021, dated 2025).
